In the NIST ThermoML archive (doi:10.1021/acs.jced.7b00572):
Numbers after ± are expanded uncertainties.

Conditions: Liquid, Vibrating wire viscometry

O=C(C(F)(F)C(F)(F)F)C(F)(C(F)(F)F)C(F)(F)F [dodecafluoro-2-methylpentan-3-one]
viscosity (243.15 K, 10000 kPa): 1.923 ± 0.04 mPa·s
viscosity (243.15 K, 20000 kPa): 2.329 ± 0.048 mPa·s
viscosity (243.15 K, 40000 kPa): 3.247 ± 0.067 mPa·s
viscosity (243.16 K, 100 kPa): 1.597 ± 0.034 mPa·s
viscosity (243.16 K, 1000 kPa): 1.628 ± 0.034 mPa·s
viscosity (243.16 K, 5000 kPa): 1.749 ± 0.037 mPa·s
viscosity (243.16 K, 30000 kPa): 2.761 ± 0.057 mPa·s
viscosity (253.15 K, 100 kPa): 1.307 ± 0.027 mPa·s
viscosity (253.15 K, 1000 kPa): 1.339 ± 0.029 mPa·s
viscosity (253.15 K, 5000 kPa): 1.451 ± 0.03 mPa·s
viscosity (253.15 K, 10000 kPa): 1.58 ± 0.033 mPa·s
viscosity (253.15 K, 20000 kPa): 1.913 ± 0.04 mPa·s
viscosity (253.15 K, 30000 kPa): 2.26 ± 0.047 mPa·s
viscosity (253.16 K, 40000 kPa): 2.659 ± 0.055 mPa·s
viscosity (263.14 K, 5000 kPa): 1.197 ± 0.025 mPa·s
viscosity (263.14 K, 10000 kPa): 1.327 ± 0.028 mPa·s
viscosity (263.14 K, 20000 kPa): 1.573 ± 0.033 mPa·s
viscosity (263.14 K, 30000 kPa): 1.86 ± 0.039 mPa·s
viscosity (263.14 K, 40000 kPa): 2.169 ± 0.045 mPa·s
viscosity (263.15 K, 100 kPa): 1.082 ± 0.023 mPa·s
viscosity (263.15 K, 1000 kPa): 1.107 ± 0.024 mPa·s
viscosity (273.14 K, 100 kPa): 0.9209 ± 0.02 mPa·s
viscosity (273.14 K, 20000 kPa): 1.332 ± 0.028 mPa·s
viscosity (273.15 K, 1000 kPa): 0.9395 ± 0.02 mPa·s
viscosity (273.15 K, 5000 kPa): 1.014 ± 0.022 mPa·s
viscosity (273.15 K, 10000 kPa): 1.117 ± 0.024 mPa·s
viscosity (273.15 K, 30000 kPa): 1.566 ± 0.033 mPa·s
viscosity (273.15 K, 40000 kPa): 1.818 ± 0.038 mPa·s
viscosity (283.15 K, 100 kPa): 0.7823 ± 0.017 mPa·s
viscosity (283.15 K, 1000 kPa): 0.7955 ± 0.017 mPa·s
viscosity (283.15 K, 5000 kPa): 0.8641 ± 0.019 mPa·s
viscosity (283.15 K, 10000 kPa): 0.9569 ± 0.021 mPa·s
viscosity (283.15 K, 20000 kPa): 1.142 ± 0.024 mPa·s
viscosity (283.15 K, 30000 kPa): 1.345 ± 0.028 mPa·s
viscosity (283.15 K, 40000 kPa): 1.567 ± 0.033 mPa·s
viscosity (293.14 K, 10000 kPa): 0.8262 ± 0.018 mPa·s
viscosity (293.15 K, 100 kPa): 0.6693 ± 0.015 mPa·s
viscosity (293.15 K, 1000 kPa): 0.6851 ± 0.015 mPa·s
viscosity (293.15 K, 5000 kPa): 0.7466 ± 0.016 mPa·s
viscosity (293.15 K, 40000 kPa): 1.35 ± 0.028 mPa·s
viscosity (293.16 K, 20000 kPa): 0.9881 ± 0.021 mPa·s
viscosity (293.16 K, 30000 kPa): 1.156 ± 0.025 mPa·s
viscosity (303.14 K, 5000 kPa): 0.6463 ± 0.014 mPa·s
viscosity (303.15 K, 100 kPa): 0.5776 ± 0.013 mPa·s
viscosity (303.15 K, 10000 kPa): 0.7173 ± 0.016 mPa·s
viscosity (303.15 K, 20000 kPa): 0.861 ± 0.018 mPa·s
viscosity (303.15 K, 40000 kPa): 1.177 ± 0.025 mPa·s
viscosity (303.16 K, 1000 kPa): 0.5906 ± 0.013 mPa·s
viscosity (303.16 K, 30000 kPa): 1.013 ± 0.022 mPa·s
viscosity (313.13 K, 1000 kPa): 0.5123 ± 0.012 mPa·s
viscosity (313.14 K, 5000 kPa): 0.5621 ± 0.013 mPa·s
viscosity (313.14 K, 20000 kPa): 0.7566 ± 0.017 mPa·s
viscosity (313.14 K, 30000 kPa): 0.8908 ± 0.019 mPa·s
viscosity (313.15 K, 100 kPa): 0.5006 ± 0.011 mPa·s
viscosity (313.15 K, 10000 kPa): 0.6263 ± 0.014 mPa·s
viscosity (313.15 K, 40000 kPa): 1.033 ± 0.022 mPa·s
viscosity (323.16 K, 1000 kPa): 0.4465 ± 0.01 mPa·s
viscosity (323.16 K, 20000 kPa): 0.668 ± 0.015 mPa·s
viscosity (323.16 K, 30000 kPa): 0.7894 ± 0.017 mPa·s
viscosity (323.16 K, 40100 kPa): 0.9178 ± 0.02 mPa·s
viscosity (323.17 K, 5000 kPa): 0.4933 ± 0.011 mPa·s
viscosity (323.17 K, 10000 kPa): 0.5514 ± 0.012 mPa·s
viscosity (333.16 K, 1000 kPa): 0.3918 ± 0.0093 mPa·s
viscosity (333.16 K, 5000 kPa): 0.4349 ± 0.01 mPa·s
viscosity (333.16 K, 10000 kPa): 0.4891 ± 0.011 mPa·s
viscosity (333.16 K, 20000 kPa): 0.5966 ± 0.013 mPa·s
viscosity (333.16 K, 30000 kPa): 0.7059 ± 0.015 mPa·s
viscosity (333.16 K, 40000 kPa): 0.8211 ± 0.018 mPa·s
viscosity (343.15 K, 5000 kPa): 0.3849 ± 0.0092 mPa·s
viscosity (343.15 K, 10000 kPa): 0.4348 ± 0.01 mPa·s
viscosity (343.15 K, 20000 kPa): 0.5345 ± 0.012 mPa·s
viscosity (343.15 K, 30000 kPa): 0.6351 ± 0.014 mPa·s
viscosity (343.15 K, 40000 kPa): 0.7373 ± 0.016 mPa·s
viscosity (343.16 K, 1000 kPa): 0.342 ± 0.0084 mPa·s
viscosity (353.15 K, 1000 kPa): 0.3011 ± 0.0077 mPa·s
viscosity (353.15 K, 30000 kPa): 0.5739 ± 0.013 mPa·s
viscosity (353.15 K, 40000 kPa): 0.6681 ± 0.015 mPa·s
viscosity (353.16 K, 5000 kPa): 0.3426 ± 0.0084 mPa·s
viscosity (353.16 K, 10000 kPa): 0.3892 ± 0.0093 mPa·s
viscosity (353.16 K, 20000 kPa): 0.4822 ± 0.011 mPa·s
viscosity (363.15 K, 5000 kPa): 0.3044 ± 0.0077 mPa·s
viscosity (363.15 K, 10000 kPa): 0.3496 ± 0.0085 mPa·s
viscosity (363.15 K, 20000 kPa): 0.436 ± 0.01 mPa·s
viscosity (363.15 K, 30000 kPa): 0.5213 ± 0.012 mPa·s
viscosity (363.15 K, 40000 kPa): 0.608 ± 0.013 mPa·s
viscosity (373.15 K, 5000 kPa): 0.2711 ± 0.0071 mPa·s
viscosity (373.15 K, 10000 kPa): 0.3155 ± 0.0079 mPa·s
viscosity (373.15 K, 20000 kPa): 0.397 ± 0.0094 mPa·s
viscosity (373.15 K, 30000 kPa): 0.4778 ± 0.011 mPa·s
viscosity (373.15 K, 40000 kPa): 0.5583 ± 0.013 mPa·s
